# Assay results: US20070224150A1, “Growth factor for hair and skin treatment” (priority 2005, published 2007)
# Tested on: HACAT cells
# Assay: HACAT cell proliferation, MTT bioassay
# Type: cell-based
# Procedure: HACAT cells were seeded in 96 well plates and cultured for one day in DMEM medium with 10% FBS, then subjected to starvation for one day. After starvation, the cells were treated for three days with various dosages of EGF in serum free media. […] The ED50 was approximately 300 pg/ml.
# HACAT cells were seeded in 96 well plates and cultured for one day in DMEM medium with 10% FBS, then subjected to starvation for one day. After starvation, the cells were treated for three days with various dosages of Anti-Aging Cytokine Complex AC (“AC ”), i.e. a mixture comprising EGF, bFGF, IGF-1 and TRX, in serum free media.
# FIG. 3A depicts control cells, FIG. 3B cells treated with 0.5 ng/ml EGF, and FIG. 3C cells treated with 0.5 ng/ml of AC.
substance,measurement,setting,value
"EGF: epidermal growth factor, composed of 53 amino acids",ED50 (cell proliferation),"starved one day, treated three days in serum free media",approximately 300 pg/ml
same,cell proliferation ratio versus untreated controls,"three days, serum free media",higher cell proliferation ratios than the untreated controls
